Data published in ChEMBL document CHEMBL4130363, “Synthesis and pharmacological evaluation of benzamide derivatives as potent and selective sigma-1 protein ligands” (Eur J Med Chem, 2017).

Key:
[1] = target: T1, Type-1 angiotensin II receptor (Homo sapiens) (UniProt P30556); assay: Agonist activity at recombinant human AT1 receptor […] at 10 uM by aequorin reporter based assay relative to agonist; assay type: functional
T1 sequence (whole entry): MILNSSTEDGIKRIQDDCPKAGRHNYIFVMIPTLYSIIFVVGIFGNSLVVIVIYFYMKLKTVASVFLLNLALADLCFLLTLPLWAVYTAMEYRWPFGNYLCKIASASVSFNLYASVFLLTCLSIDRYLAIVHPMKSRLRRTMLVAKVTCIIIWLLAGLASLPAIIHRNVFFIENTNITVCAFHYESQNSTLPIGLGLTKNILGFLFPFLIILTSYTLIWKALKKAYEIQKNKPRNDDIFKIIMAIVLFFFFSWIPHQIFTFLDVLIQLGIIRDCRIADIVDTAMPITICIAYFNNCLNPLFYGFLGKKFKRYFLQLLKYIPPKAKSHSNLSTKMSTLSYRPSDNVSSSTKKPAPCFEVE

[2] = target: T2, 5-hydroxytryptamine receptor 3A (Homo sapiens) (UniProt P46098); assay: Antagonist activity at recombinant human 5-HT3 assessed as inhibition of agonist-induced effect at 10 uM by aequorin reporter based assay
T2 sequence (whole entry): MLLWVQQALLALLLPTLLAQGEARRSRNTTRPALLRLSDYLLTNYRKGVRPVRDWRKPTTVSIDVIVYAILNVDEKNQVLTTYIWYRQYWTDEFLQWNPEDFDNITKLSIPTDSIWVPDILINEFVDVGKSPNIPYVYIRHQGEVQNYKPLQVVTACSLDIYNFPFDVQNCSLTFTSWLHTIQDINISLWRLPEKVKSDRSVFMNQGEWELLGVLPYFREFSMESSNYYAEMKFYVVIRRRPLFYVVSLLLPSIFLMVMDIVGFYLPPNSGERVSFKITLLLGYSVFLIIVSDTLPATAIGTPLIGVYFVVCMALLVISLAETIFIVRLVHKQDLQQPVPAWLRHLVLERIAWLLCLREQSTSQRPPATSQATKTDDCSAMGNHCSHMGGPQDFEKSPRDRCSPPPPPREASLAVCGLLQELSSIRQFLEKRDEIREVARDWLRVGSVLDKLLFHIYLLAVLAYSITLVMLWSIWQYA

[3] = target: 5-hydroxytryptamine receptor 4 (Homo sapiens) (UniProt Q13639); assay: Antagonist activity at recombinant human 5-HT4E assessed as inhibition of agonist-induced cAMP levels at 10 uM by HTRF assay; assay type: functional
5-hydroxytryptamine receptor 4 (Homo sapiens), sequence (Q13639 whole entry): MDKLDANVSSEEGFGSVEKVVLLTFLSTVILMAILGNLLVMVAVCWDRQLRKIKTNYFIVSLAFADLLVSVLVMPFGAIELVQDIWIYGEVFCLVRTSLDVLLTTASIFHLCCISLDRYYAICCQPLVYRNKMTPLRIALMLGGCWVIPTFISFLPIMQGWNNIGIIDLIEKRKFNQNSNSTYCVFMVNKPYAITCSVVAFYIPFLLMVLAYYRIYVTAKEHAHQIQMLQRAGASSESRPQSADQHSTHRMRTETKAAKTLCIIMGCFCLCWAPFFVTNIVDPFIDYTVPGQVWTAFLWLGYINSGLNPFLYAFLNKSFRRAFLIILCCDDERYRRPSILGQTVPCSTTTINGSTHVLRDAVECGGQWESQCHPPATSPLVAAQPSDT

[4] = target: Histamine H2 receptor (Homo sapiens) (UniProt P25021); assay: Antagonist activity at recombinant human histamine H2 receptor assessed as inhibition of agonist-induced cAMP levels at 10 uM by HTRF assay; assay type: functional
Histamine H2 receptor (Homo sapiens), sequence (P25021 whole entry): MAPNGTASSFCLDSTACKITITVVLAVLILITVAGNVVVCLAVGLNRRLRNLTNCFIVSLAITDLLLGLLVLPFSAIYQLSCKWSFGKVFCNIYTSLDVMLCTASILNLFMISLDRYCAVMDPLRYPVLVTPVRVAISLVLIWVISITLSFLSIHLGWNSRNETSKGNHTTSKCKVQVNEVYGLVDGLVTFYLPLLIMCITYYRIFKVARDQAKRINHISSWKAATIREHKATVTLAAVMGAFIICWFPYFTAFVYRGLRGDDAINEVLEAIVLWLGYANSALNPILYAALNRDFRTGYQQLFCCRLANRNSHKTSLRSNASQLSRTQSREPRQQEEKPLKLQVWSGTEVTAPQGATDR

[5] = target: T3, Muscarinic acetylcholine receptor M1 (Homo sapiens) (UniProt P11229); assay: Antagonist activity at recombinant human muscarinic M1 receptor assessed as inhibition of agonist-induced effect at 10 uM by aequorin reporter based assay; assay type: functional
T3 sequence (whole entry): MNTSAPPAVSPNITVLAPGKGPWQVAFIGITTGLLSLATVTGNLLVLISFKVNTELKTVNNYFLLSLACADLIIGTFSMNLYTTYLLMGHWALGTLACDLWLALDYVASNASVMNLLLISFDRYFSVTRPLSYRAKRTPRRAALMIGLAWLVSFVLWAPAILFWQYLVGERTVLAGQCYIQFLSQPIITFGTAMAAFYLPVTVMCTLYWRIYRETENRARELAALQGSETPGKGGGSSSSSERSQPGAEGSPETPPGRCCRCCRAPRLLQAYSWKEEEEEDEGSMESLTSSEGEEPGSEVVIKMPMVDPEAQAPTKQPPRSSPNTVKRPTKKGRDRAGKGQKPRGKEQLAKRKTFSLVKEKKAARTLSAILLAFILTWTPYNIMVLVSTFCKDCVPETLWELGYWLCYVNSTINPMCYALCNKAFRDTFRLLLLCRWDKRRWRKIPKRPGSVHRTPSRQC

[6] = target: T4, Muscarinic acetylcholine receptor M2 (Homo sapiens) (UniProt P08172); assay: Antagonist activity at human muscarinic M2 receptor assessed as inhibition of agonist-induced effect at 10 uM by GTPgamma[35S] binding-based assay; assay type: functional
T4 sequence (whole entry): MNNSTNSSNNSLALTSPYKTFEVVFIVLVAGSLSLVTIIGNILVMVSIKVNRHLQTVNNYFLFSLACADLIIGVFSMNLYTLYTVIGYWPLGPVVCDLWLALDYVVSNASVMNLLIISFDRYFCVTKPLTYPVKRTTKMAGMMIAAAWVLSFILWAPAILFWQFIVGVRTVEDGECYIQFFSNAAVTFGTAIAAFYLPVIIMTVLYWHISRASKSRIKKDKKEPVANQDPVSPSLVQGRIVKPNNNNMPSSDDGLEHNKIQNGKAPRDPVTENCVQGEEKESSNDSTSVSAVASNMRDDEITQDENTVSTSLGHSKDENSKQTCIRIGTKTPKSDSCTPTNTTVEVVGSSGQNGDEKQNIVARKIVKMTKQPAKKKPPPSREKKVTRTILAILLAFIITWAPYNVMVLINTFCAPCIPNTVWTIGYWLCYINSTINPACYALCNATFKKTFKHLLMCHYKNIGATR

[7] = target: Substance-P receptor (Homo sapiens) (UniProt P25103); assay: Agonist activity at recombinant human NK1R at 10 uM by aequorin reporter based assay relative to agonist; assay type: functional
Substance-P receptor (Homo sapiens), sequence (P25103 whole entry): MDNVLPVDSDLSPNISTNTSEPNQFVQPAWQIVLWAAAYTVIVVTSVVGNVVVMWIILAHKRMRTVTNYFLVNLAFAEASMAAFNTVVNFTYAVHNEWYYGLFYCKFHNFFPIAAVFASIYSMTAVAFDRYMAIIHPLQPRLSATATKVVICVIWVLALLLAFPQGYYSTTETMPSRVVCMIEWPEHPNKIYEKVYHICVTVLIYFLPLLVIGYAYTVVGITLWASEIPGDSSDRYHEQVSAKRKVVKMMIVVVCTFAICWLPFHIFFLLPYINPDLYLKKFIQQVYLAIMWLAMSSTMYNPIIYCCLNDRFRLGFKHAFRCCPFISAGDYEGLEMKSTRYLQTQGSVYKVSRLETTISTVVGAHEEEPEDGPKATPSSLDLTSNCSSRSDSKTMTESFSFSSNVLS

[8] = target: T5, Neuropeptide Y receptor type 1 (Homo sapiens) (UniProt P25929); assay: Agonist activity at recombinant human NPY1R assessed as induction of cAMP levels at 10 uM by HTRF assay relative to agonist; assay type: functional
T5 sequence (whole entry): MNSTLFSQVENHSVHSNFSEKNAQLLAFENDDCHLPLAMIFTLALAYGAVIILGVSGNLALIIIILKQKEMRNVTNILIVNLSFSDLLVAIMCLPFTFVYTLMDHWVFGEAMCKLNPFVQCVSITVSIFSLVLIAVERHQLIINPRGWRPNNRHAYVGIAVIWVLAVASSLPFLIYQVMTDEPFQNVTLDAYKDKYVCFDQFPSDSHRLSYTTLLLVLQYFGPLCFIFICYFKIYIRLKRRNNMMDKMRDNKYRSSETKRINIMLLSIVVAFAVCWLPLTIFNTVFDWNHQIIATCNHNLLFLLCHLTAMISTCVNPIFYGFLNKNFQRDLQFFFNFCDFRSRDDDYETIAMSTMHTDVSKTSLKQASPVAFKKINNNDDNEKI

[9] = target: Mu-type opioid receptor (Homo sapiens) (UniProt P35372); assay: Agonist activity at recombinant human mu-type opioid receptor at 10 uM by GTPgamma[35S] binding-based assay relative to agonist; assay type: functional
Mu-type opioid receptor (Homo sapiens), sequence (P35372 whole entry): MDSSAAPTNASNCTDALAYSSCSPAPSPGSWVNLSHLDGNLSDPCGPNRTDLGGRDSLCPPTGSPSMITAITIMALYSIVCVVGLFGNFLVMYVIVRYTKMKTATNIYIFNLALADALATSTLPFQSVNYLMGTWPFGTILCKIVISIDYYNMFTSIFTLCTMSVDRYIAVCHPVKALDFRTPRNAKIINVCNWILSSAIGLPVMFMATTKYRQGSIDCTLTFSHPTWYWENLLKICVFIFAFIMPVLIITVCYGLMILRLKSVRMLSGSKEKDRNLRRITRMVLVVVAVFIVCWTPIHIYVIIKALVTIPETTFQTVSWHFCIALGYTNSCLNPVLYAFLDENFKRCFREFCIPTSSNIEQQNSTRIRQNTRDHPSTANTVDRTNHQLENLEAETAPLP

Row | Compound | Activity [1] [%] | inhibition [2] [%] | inhibition [3] [%] | inhibition [4] [%] | inhibition [5] [%] | inhibition [6] [%] | Activity [7] [%] | Activity [8] [%] | Activity [9] [%]
1 | COc1cccc(C(=O)NCCCN(C)Cc2ccccc2)c1 | 0 | 28 | 12 | 16 | 34 | 26 | 0 | 0 | 16
2 | CN(CCCNC(=O)c1ccc(Cl)cc1)CCc1ccccc1 | 0 | 62 | 4 | 4 | 86 | 54 | 0 | -4 | 22
3 | CN(CCNC(=O)c1ccc(C#N)cc1)Cc1ccccc1 | 0 | 75 | -2 | 25 | 6 | 26 | 0 | 4 | 66
4 | CN(CCCNC(=O)c1ccc(C(F)(F)F)cc1)Cc1ccccc1 | 0 | 75 | -9 | 6 | 88 | 20 | 0 | 9 | 43
5 | CN(CCNC(=O)c1ccc(Cl)cc1)Cc1ccccc1 | 0 | 51 | -3 | 13 | 69 | 28 | 0 | -2 | 62
6 | CN(CCCNC(=O)c1cccc(Br)c1)Cc1ccccc1 | 0 | 83 | -2 | 9 | 96 | 30 | 0 | 1 | 15

More lines, now with the values ahead:

Row | Activity [1] [%] | inhibition [2] [%] | inhibition [3] [%] | inhibition [4] [%] | inhibition [5] [%] | inhibition [6] [%] | Activity [7] [%] | Activity [8] [%] | Activity [9] [%] | Compound
7 | 0 | 23 | -6 | 2 | 85 | 15 | 0 | 1 | 31 | CN(CCCNC(=O)c1ccc([N+](=O)[O-])cc1)Cc1ccccc1
8 | 0 | 19 | 8 | 15 | 20 | 29 | 0 | 1 | 16 | COc1ccc(C(=O)NCCCN(C)Cc2ccccc2)cc1
9 | 0 | 30 | 2 | 21 | 31 | 29 | 0 | 3 | 60 | CN(CCNC(=O)c1ccc([N+](=O)[O-])cc1)Cc1ccccc1
10 | 0 | 42 | -4 | 7 | 89 | 38 | 0 | 2 | 26 | CN(CCCNC(=O)c1ccc(Cl)cc1)Cc1ccccc1
11 | 1 | 79 | -5 | 6 | 89 | 28 | 0 | 5 | 39 | CN(CCCNC(=O)c1ccc(Br)cc1)Cc1ccccc1
12 | 0 | 90 | 0 | 8 | 98 | 36 | 0 | 2 | 31 | CCCc1ccc(C(=O)NCCCN(C)Cc2ccccc2)cc1
